Source: PubChem BioAssay AID332 (DTP/NCI, 2004)
“And” between values parts separate entries of the source, which are not always exact repeats. Equal values may be shown once. Inconclusive results are not listed.

Tested on: mice, ADJ-PC-20 plasma cell tumor sc, T/C %
Assay: NCI In Vivo Anticancer Drug Screen. Data for tumor model ADJ-PC-20 Plasma Cell (subcutaneous) in unknown mice
Conditions: endpoint: mean tumor weight, higher = larger tumour
Description: The antitumor activity of compounds was measured in mice bearing transplantable tumors. Survival or tumor size were measured and the results are expressed as the measurement made in the treated group (T) divided by the measurement made in the vehicle treated control group (C). The tumor model used in this assay is ADJ-PC-20 Plasma Cell (subcutaneous) in unknown mice

[1] = dose: 12.5 mg/kg/injection, schedule: Q01DX010 (ip), vehicle: carboxymethylcellulose (CMC)
[2] = dose: 25.0 mg/kg/injection, schedule: Q01DX010 (ip), vehicle: carboxymethylcellulose (CMC)
[3] = dose: 50.0 mg/kg/injection, schedule: Q01DX010 (ip), vehicle: carboxymethylcellulose (CMC)
[4] = dose: 3.1 mg/kg/injection, schedule: Q01DX010 (ip), vehicle: carboxymethylcellulose (CMC)
[5] = dose: 6.3 mg/kg/injection, schedule: Q01DX010 (ip), vehicle: carboxymethylcellulose (CMC)
[6] = dose: 0.25 mg/kg/injection, schedule: Q01DX010 (ip), vehicle: carboxymethylcellulose (CMC)
[7] = dose: 250.0 mg/kg/injection, schedule: Q01DX010 (ip), vehicle: carboxymethylcellulose (CMC)
[8] = dose: 125.0 mg/kg/injection, schedule: Q01DX010 (sc), vehicle: steriod suspending solution
[9] = dose: 2.0 mg/kg/injection, schedule: Q01DX010 (ip), vehicle: carboxymethylcellulose (CMC)
[10] = dose: 0.63 mg/kg/injection, schedule: Q01DX010 (ip), vehicle: carboxymethylcellulose (CMC)

CC(=O)Nc1ccc2nc3ccc(NC(C)=O)cc3[n+](-c3ccccc3)c2c1
T/C [1]: 65 % of control | T/C [2]: 76 % of control | T/C [3]: 77 % of control

CN(C)c1ccc(/C=C\c2ccnc3ccccc23)cc1
T/C (dose: 6.3 mg/kg/injection, schedule: Q01DX010 (ip), vehicle: water): 70 % of control | T/C (dose: 12.5 mg/kg/injection, schedule: Q01DX010 (ip), vehicle: water): 52 % of control | T/C (dose: 25.0 mg/kg/injection, schedule: Q01DX010 (ip), vehicle: water): 48 % of control | T/C (dose: 25.0 mg/kg/injection, schedule: Q01DX011 (ip), vehicle: water): 92 % of control

CCCCNc1ncnc2c1cnn2C
T/C [4]: 94 % of control | T/C [1]: 122 % of control | T/C [2]: 96 % of control | T/C [3]: 109 % of control

CN(C)CC(=O)c1ccc(O)c(O)c1
T/C (dose: 62.5 mg/kg/injection, schedule: Q01DX010 (ip), vehicle: saline): 99 % of control | T/C (dose: 250.0 mg/kg/injection, schedule: Q01DX010 (ip), vehicle: saline): 77 % of control | T/C (dose: 500.0 mg/kg/injection, schedule: Q01DX010 (ip), vehicle: saline): 72 % of control and 86 % of control

C[N+](C)(C)c1ncnc2nc[nH]c12
T/C (dose: 0.8 mg/kg/injection, schedule: Q01DX010 (ip), vehicle: carboxymethylcellulose (CMC)): 70 % of control | T/C (dose: 1.6 mg/kg/injection, schedule: Q01DX010 (ip), vehicle: carboxymethylcellulose (CMC)): 59 % of control | T/C [4]: 69 % of control | T/C [5]: 70 % of control | T/C [1]: 36 % of control | T/C [2]: 52 % of control | T/C [3]: 6 % of control

Nc1nc2n[nH]nc2c(=O)[nH]1
T/C (dose: 12.5 mg/kg/injection, schedule: Q01DX010 (ip), vehicle: other): 113 % of control | T/C (dose: 75.0 mg/kg/injection, schedule: Q01DX010 (ip), vehicle: other): 58 % of control | T/C (dose: 100.0 mg/kg/injection, schedule: Q01DX010 (ip), vehicle: other): 83 % of control

Nc1nc(SCc2ccccc2)c2[nH]cnc2n1
T/C (dose: 0.3 mg/kg/injection, schedule: Q01DX010 (ip), vehicle: carboxymethylcellulose (CMC)): 94 % of control | T/C (dose: 1.2 mg/kg/injection, schedule: Q01DX010 (ip), vehicle: carboxymethylcellulose (CMC)): 81 % of control | T/C (dose: 2.4 mg/kg/injection, schedule: Q01DX010 (ip), vehicle: carboxymethylcellulose (CMC)): 119 % of control | T/C (dose: 4.7 mg/kg/injection, schedule: Q01DX010 (ip), vehicle: carboxymethylcellulose (CMC)): 9 % of control

O[C@H](CN1CC1)[C@@H](O)CN1CC1
T/C [6]: 25 % of control | T/C (dose: 16.0 micrograms/kg/injection, schedule: Q01DX010 (ip), vehicle: carboxymethylcellulose (CMC)): 103 % of control | T/C (dose: 31.0 micrograms/kg/injection, schedule: Q01DX010 (ip), vehicle: carboxymethylcellulose (CMC)): 151 % of control | T/C (dose: 63.0 micrograms/kg/injection, schedule: Q01DX010 (ip), vehicle: carboxymethylcellulose (CMC)): 55 % of control | T/C (dose: 125.0 micrograms/kg/injection, schedule: Q01DX010 (ip), vehicle: carboxymethylcellulose (CMC)): 66 % of control

Oc1cc(CN(CCCl)CCCl)c(O)cc1CN(CCCl)CCCl
T/C (dose: 0.22 mg/kg/injection, schedule: Q01DX010 (sc), vehicle: steriod suspending solution): 62 % of control | T/C (dose: 0.45 mg/kg/injection, schedule: Q01DX010 (sc), vehicle: steriod suspending solution): 69 % of control | T/C (dose: 0.9 mg/kg/injection, schedule: Q01DX010 (sc), vehicle: steriod suspending solution): 76 % of control | T/C (dose: 1.8 mg/kg/injection, schedule: Q01DX010 (sc), vehicle: steriod suspending solution): 28 % of control

O=C(Nc1ccc(C2=NCCN2)cc1)c1cccc(C(=O)Nc2ccc(C3=NCCN3)cc2)c1
T/C (dose: 9.4 mg/kg/injection, schedule: Q01DX010 (ip), vehicle: carboxymethylcellulose (CMC)): 154 % of control | T/C (dose: 18.8 mg/kg/injection, schedule: Q01DX010 (ip), vehicle: carboxymethylcellulose (CMC)): 214 % of control | T/C (dose: 37.5 mg/kg/injection, schedule: Q01DX010 (ip), vehicle: carboxymethylcellulose (CMC)): 187 % of control

OCC1OC(n2cnc3c(Cl)ncnc32)C(O)C1O (stereo unspecified)
T/C (dose: 125.0 mg/kg/injection, schedule: Q01DX010 (ip), vehicle: carboxymethylcellulose (CMC)): 100 % of control | T/C [7]: 107 % of control | T/C (dose: 500.0 mg/kg/injection, schedule: Q01DX010 (ip), vehicle: carboxymethylcellulose (CMC)): 93 % of control | T/C (dose: 1000.0 mg/kg/injection, schedule: Q01DX010 (ip), vehicle: carboxymethylcellulose (CMC)): 35 % of control

O=c1[nH]c(=O)n(C2CC(O)C(CO)O2)cc1F (stereo unspecified)
T/C [2]: 67 % of control | T/C [3]: 21 % of control | T/C (dose: 100.0 mg/kg/injection, schedule: Q01DX010 (ip), vehicle: carboxymethylcellulose (CMC)): 36 % of control

C[C@]12CCC(=O)C=C1CC[C@@H]1[C@@H]2CC[C@@]2(C)[C@H]1CC[C@]2(C)O
T/C (dose: 31.25 mg/kg/injection, schedule: Q01DX010 (sc), vehicle: steriod suspending solution): 113 % of control | T/C (dose: 62.5 mg/kg/injection, schedule: Q01DX010 (sc), vehicle: steriod suspending solution): 114 % of control | T/C [8]: 99 % of control

CN(C)c1ccc(/C=C/c2ccnc3ccccc23)cc1
T/C [9]: 117 % of control | T/C (dose: 4.0 mg/kg/injection, schedule: Q01DX010 (ip), vehicle: water): 81 % of control | T/C (dose: 16.0 mg/kg/injection, schedule: Q01DX010 (ip), vehicle: carboxymethylcellulose (CMC)): 89 % of control and 99 % of control | T/C (dose: 16.0 mg/kg/injection, schedule: Q01DX010 (ip), vehicle: water): 78 % of control | T/C (dose: 32.0 mg/kg/injection, schedule: Q01DX010 (ip), vehicle: carboxymethylcellulose (CMC)): 28 % of control

CCCNc1ncnc2[nH]ncc12
T/C (dose: 5.0 mg/kg/injection, schedule: Q01DX010 (ip), vehicle: water): 97 % of control | T/C (dose: 10.0 mg/kg/injection, schedule: Q01DX010 (ip), vehicle: water): 86 % of control | T/C (dose: 20.0 mg/kg/injection, schedule: Q01DX010 (ip), vehicle: water): 95 % of control

CSc1ncnc2c1ncn2C1OC(CO)C(O)C1O (stereo unspecified)
T/C [4]: 84 % of control | T/C (dose: 6.25 mg/kg/injection, schedule: Q01DX010 (ip), vehicle: carboxymethylcellulose (CMC)): 98 % of control | T/C [1]: 104 % of control | T/C [2]: 14 % of control

CCC(=O)O[C@H]1CC[C@H]2[C@@H]3CCC4=CC(=O)CC[C@]4(C)[C@H]3CC[C@]12C
T/C [8]: 79 % of control | T/C (dose: 250.0 mg/kg/injection, schedule: Q01DX010 (sc), vehicle: steriod suspending solution): 154 % of control | T/C (dose: 500.0 mg/kg/injection, schedule: Q01DX010 (sc), vehicle: steriod suspending solution): 76 % of control | T/C (dose: 1000.0 mg/kg/injection, schedule: Q01DX010 (sc), vehicle: steriod suspending solution): 108 % of control | T/C (dose: 2000.0 mg/kg/injection, schedule: Q01DX010 (sc), vehicle: steriod suspending solution): 80 % of control

NC(Cc1ccc(N(CCCl)CCCl)cc1)C(=O)O (stereo unspecified)
T/C (dose: 0.08 mg/kg/injection, schedule: Q01DX010 (ip), vehicle: carboxymethylcellulose (CMC)): 99 % of control | T/C (dose: 0.16 mg/kg/injection, schedule: Q01DX010 (ip), vehicle: carboxymethylcellulose (CMC)): 107 % of control | T/C [10]: 79 % of control | T/C (dose: 1.25 mg/kg/injection, schedule: Q01DX010 (ip), vehicle: carboxymethylcellulose (CMC)): 9 % of control

Nc1ncnc2c1ccn2C1OC(CO)C(O)C1O (stereo unspecified)
T/C [10]: 94 % of control

N=C(N)c1ccc(Nc2ccc(C(=N)N)cc2)cc1
T/C (dose: 6.25 mg/kg/injection, schedule: Q01DX010 (ip), vehicle: methylcellulose (MC)): 116 % of control | T/C (dose: 12.5 mg/kg/injection, schedule: Q01DX010 (ip), vehicle: methylcellulose (MC)): 105 % of control

S=P(N1CCOCC1)(N1CC1)N1CC1
T/C [4]: 88 % of control and 100 % of control | T/C [5]: 116 % of control | T/C [1]: 1 % of control

O=C(Nc1ccc(C2=NCCCN2)cc1)c1ccc(NC(=O)c2ccc(C3=NCCCN3)cc2)cc1
T/C (dose: 0.12 mg/kg/injection, schedule: Q01DX010 (ip), vehicle: carboxymethylcellulose (CMC)): 99 % of control | T/C [6]: 87 % of control | T/C (dose: 0.5 mg/kg/injection, schedule: Q01DX010 (ip), vehicle: carboxymethylcellulose (CMC)): 109 % of control | T/C (dose: 1.0 mg/kg/injection, schedule: Q01DX010 (ip), vehicle: carboxymethylcellulose (CMC)): 84 % of control | T/C [9]: 94 % of control | T/C (dose: 4.0 mg/kg/injection, schedule: Q01DX010 (ip), vehicle: carboxymethylcellulose (CMC)): 83 % of control | T/C (dose: 8.0 mg/kg/injection, schedule: Q01DX010 (ip), vehicle: carboxymethylcellulose (CMC)): 56 % of control

CN(C)c1nc(N(C)C)nc(N(C)C)n1
T/C (dose: 62.5 mg/kg/injection, schedule: Q01DX010 (ip), vehicle: carboxymethylcellulose (CMC)): 97 % of control | T/C [7]: 58 % of control
